Experimental data from article PMC7497630, “Coibamide A Targets Sec61 to Prevent Biogenesis of Secretory and Membrane Proteins” (ACS Chemical Biology, 2020).
Bridge positions count the residues as written; N and C are the ends. Square brackets hold non-standard residues; d marks the D form. Peptide text beside a SMILES is read from it. * marks the point of attachment. Phe(4-CF3-diazirinyl) = N[C@@H](Cc1ccc(C2(C(F)(F)F)N=N2)cc1)C(=O)O; NMe2Val = CC(C)[C@@H](C(=O)*)N(C)C; NMeI = CC[C@H](C)[C@H](NC)C(=O)O; NMeT = CN[C@H](C(=O)O)[C@@H](C)O; NMeL = CN[C@@H](CC(C)C)C(=O)O; NMePra = C#CC[C@H](NC)C(=O)O; dHiv = CC(C)[C@@H](O)C(=O)O; NMeS = CN[C@@H](CO)C(=O)O; dNMeA = CN[C@H](C)C(=O)O

Test system: HCT116 cells
Test: Cell viability, Alamar Blue assay
Type: cell-based, human
Details: HCT116, 72 h, 0.1% DMSO (Figure 1D), read-out: IC50
Procedure: Figure 1 Cytotoxicity of synthetic and Pra-containing coibamides. (A) Structure of CbA. (B) Human MDA-MB-231 breast cancer cells were treated with increasing concentrations of synthetic CbA or vehicle (0.1% DMSO) and cell viability assessed at 72 h by an MTS end-point assay. (C) Structure of Photo-CbA. (D) Human HCT116 cells were treated with increasing concentrations of synthetic or photo-CbA in 0.1% DMSO, and cell viability assessed at 72 h by Alamar Blue assay. TEXT PRINTED IN THE PICTURE: (B) CbA: MDA-MB-231 cell line: IC50(nM): 1.6 | (D) CbA: HCT 116 cell line: IC50(nM): 29.2 | (D) Photo-CbA: HCT 116 cell line: IC50(nM): 6.5
Figure 5 CbA mode of inhibition is specific compared to known Sec61 inhibitors. (A) Cell viability was measured by Alamar Blue assay (mean ± SD, n = 4, all cell lines assayed simultaneously) for HCT-116 cell lines isolated on the basis of CbA resistance in the presence of concentration series of indicated compounds. (B) Cell viability was measured by Alamar Blue assay (mean ± SD, n = 4, all cell lines assayed simultaneously) for HEK293FRT cells stably expressing Sec61α mutants in the presence of concentration series of indicated compounds. (C) Comparison of published NCI60 data for CbA,[3] AprA,[11] and IpoF.[33] The heat map was derived by plotting each GI50 value divided by the median GI50 for that compound. X indicates a cell line that was not tested. Closed arrowhead indicates cell lines with most notable differences across the three compounds. […]
A431, HEK293T, and HEK293FRT cells were cultured in DMEM supplemented with 10% FBS. […] Viability was estimated by the addition of Alamar Blue (Life Technologies) and measuring fluorescence after a further 4 h. […]

Work on `C#CC[C@@H](C(=O)N(C)[C@@H](CC(C)C)C(=O)N(C)[C@@H]1C(=O)N(C)[C@@H](COC)C(=O)N(C)[C@@H]([C@@H](C)CC)C(=O)N[C@@H](C)C(=O)N(C)[C@@H](CC(C)C)C(=O)N[C@@H](Cc2ccc(C3(C(F)(F)F)N=N3)cc2)C(=O)N(C)[C@H](C)C(=O)O[C@@H]1C)N(C)C(=O)[C@H](OC(=O)[C@H](C(C)C)N(C)C)C(C)C` [Photo-CbA] (NMe2Val-[dHiv][NMePra][NMeL][NMeT][NMeS](Me)[NMeI]A[NMeL][Phe(4-CF3-diazirinyl)][dNMeA]; ester 4-C) yielded an IC50 of 6.5 nM.
